Measurements published in PubChem BioAssay (NCI).
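Method: 48-hour compound exposure of cells in 96-well plates, five concentrations, linear interpolation of endpoints. The concentration for 50% growth inhibition is given as GI50. TGI is the concentration that stops growth completely.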

Legend:
Experiment in all cases: NCI-60 cell line screen, 48 h
[1] = tested on: NCI-H522 lung
[2] = tested on: HOP-62 NSCLC
[3] = tested on: PC-3 prostate
[4] = tested on: LOX IMVI melanoma
[5] = tested on: OVCAR-4 ovarian
[6] = tested on: EKVX NSCLC
[7] = tested on: A549 NSCLC
[8] = tested on: OVCAR-5 ovarian
[9] = tested on: IGROV1 ovarian
[10] = tested on: SK-MEL-28 melanoma
[11] = tested on: SK-MEL-2 melanoma
[12] = tested on: NCI-H460 lung
[13] = tested on: NCI-H23 lung
[14] = tested on: NCI-H226 lung
[15] = tested on: KM12 colon
[16] = tested on: COLO 205 colon
[17] = tested on: HCT-116 colon
[18] = tested on: BT-549 breast
[19] = tested on: SN12C renal
[20] = tested on: SF-268 CNS
[21] = tested on: M14 melanoma
[22] = tested on: HT29 colon
[23] = tested on: TK-10 renal
[24] = tested on: CAKI-1 renal
[25] = tested on: OVCAR-3 ovarian
[26] = tested on: SF-539 CNS
[27] = tested on: NCI/ADR-RES ovarian
[28] = tested on: K-562 leukemia
[29] = tested on: CCRF-CEM leukemia
[30] = tested on: OVCAR-8 ovarian
[31] = tested on: RXF 393 renal
[32] = tested on: U251 CNS
[33] = tested on: UACC-257 melanoma
[34] = tested on: SK-MEL-5 melanoma
[35] = tested on: SNB-19 CNS
[36] = tested on: RPMI-8226 leukemia
[37] = tested on: MDA-MB-231 breast
[38] = tested on: SF-295 CNS
[39] = tested on: SNB-75 CNS
[40] = tested on: MALME-3M melanoma
[41] = tested on: HCT-15 colon
[42] = tested on: ACHN renal
[43] = tested on: HS 578T breast
[44] = tested on: MCF7 breast
[45] = tested on: T-47D breast
[46] = tested on: HCC-2998 colon
[47] = tested on: UACC-62 melanoma
[48] = tested on: MDA-MB-435
[49] = tested on: SK-OV-3 ovarian
[50] = tested on: DU-145 prostate
[51] = tested on: SW-620 colon
[52] = tested on: UO-31 renal
[53] = tested on: 786-0 renal

For `Cc1ccc(C2=C(c3ccc(C)cc3)C3(c4ccc(C)cc4)[C@@H](C#N)[C@H](C#N)C2(c2ccc(C)cc2)S3=O)cc1` (stereo partly specified), the GI50 [1] was > 100 µM, the TGI [1] was > 100 µM and the GI50 [2] was > 100 µM. For the same compound, the TGI [2] was > 100 µM, the GI50 [3] was > 100 µM and the TGI [3] was > 100 µM. For the same compound, the GI50 [4] was > 100 µM, the TGI [4] was > 100 µM and the GI50 [5] was > 100 µM. For the same compound, the TGI [5] was > 100 µM, the GI50 [6] was > 100 µM and the TGI [6] was > 100 µM. For the same compound, the GI50 [7] was > 100 µM, the TGI [7] was > 100 µM and the GI50 [8] was > 100 µM. For the same compound, the TGI [8] was > 100 µM, the GI50 [9] was > 100 µM and the TGI [9] was > 100 µM. For the same compound, the GI50 [10] was > 100 µM, the TGI [10] was > 100 µM and the GI50 [11] was > 100 µM. The TGI [11] was > 100 µM, the GI50 [12] was > 100 µM and the TGI [12] was > 100 µM. The GI50 [13] was > 100 µM, the TGI [13] was > 100 µM and the GI50 [14] was > 100 µM. The TGI [14] was > 100 µM, the GI50 [15] was > 100 µM and the TGI [15] was > 100 µM. For the same compound, the GI50 [16] was > 100 µM, the TGI [16] was > 100 µM and the GI50 [17] was 48.5 µM. The TGI [17] was > 100 µM, the GI50 [18] was > 100 µM and the TGI [18] was > 100 µM. The GI50 [19] was > 100 µM, the TGI [19] was > 100 µM and the GI50 [20] was > 100 µM. The TGI [20] was > 100 µM, the GI50 [21] was 30.1 µM and the TGI [21] was > 100 µM. For the same compound, the GI50 [22] was > 100 µM, the TGI [22] was > 100 µM and the GI50 [23] was > 100 µM. For the same compound, the TGI [23] was > 100 µM, the GI50 [24] was > 100 µM and the TGI [24] was > 100 µM. The GI50 [25] was > 100 µM, the TGI [25] was > 100 µM and the GI50 [26] was > 100 µM. The TGI [26] was > 100 µM, the GI50 [27] was > 100 µM and the TGI [27] was > 100 µM. The GI50 [28] was 2.02 µM, the TGI [28] was > 100 µM and the GI50 [29] was > 100 µM. For the same compound, the TGI [29] was > 100 µM, the GI50 [30] was > 100 µM and the TGI [30] was > 100 µM. For the same compound, the GI50 [31] was > 100 µM, the TGI [31] was > 100 µM and the GI50 [32] was > 100 µM. For the same compound, the TGI [32] was > 100 µM, the GI50 [33] was > 100 µM and the TGI [33] was > 100 µM. For the same compound, the GI50 [34] was > 100 µM, the TGI [34] was > 100 µM and the GI50 [35] was > 100 µM. For the same compound, the TGI [35] was > 100 µM, the GI50 [36] was > 100 µM and the TGI [36] was > 100 µM. For the same compound, the GI50 [37] was > 100 µM, the TGI [37] was > 100 µM and the GI50 [38] was > 100 µM. For the same compound, the TGI [38] was > 100 µM, the GI50 [39] was > 100 µM and the TGI [39] was > 100 µM. The GI50 [40] was > 100 µM, the TGI [40] was > 100 µM and the GI50 [41] was > 100 µM. The TGI [41] was > 100 µM, the GI50 [42] was > 100 µM and the TGI [42] was > 100 µM. For the same compound, the GI50 [43] was > 100 µM, the TGI [43] was > 100 µM and the GI50 [44] was > 100 µM. For the same compound, the TGI [44] was > 100 µM, the GI50 [45] was > 100 µM and the TGI [45] was > 100 µM. For the same compound, the GI50 [46] was > 100 µM, the TGI [46] was > 100 µM and the GI50 [47] was > 100 µM. For the same compound, the TGI [47] was > 100 µM, the GI50 [48] was > 100 µM and the TGI [48] was > 100 µM. For the same compound, the GI50 [49] was > 100 µM, the TGI [49] was > 100 µM and the GI50 [50] was > 100 µM. The TGI [50] was > 100 µM, the GI50 [51] was > 100 µM and the TGI [51] was > 100 µM. The GI50 [52] was > 100 µM, the TGI [52] was > 100 µM and the GI50 [53] was > 100 µM. For the same compound, the TGI [53] was > 100 µM.
